Experiment [1] has as its target T1, Tyrosine-protein phosphatase non-receptor type 1 (Homo sapiens, UniProt P18031).
T1 sequence (P18031 whole entry): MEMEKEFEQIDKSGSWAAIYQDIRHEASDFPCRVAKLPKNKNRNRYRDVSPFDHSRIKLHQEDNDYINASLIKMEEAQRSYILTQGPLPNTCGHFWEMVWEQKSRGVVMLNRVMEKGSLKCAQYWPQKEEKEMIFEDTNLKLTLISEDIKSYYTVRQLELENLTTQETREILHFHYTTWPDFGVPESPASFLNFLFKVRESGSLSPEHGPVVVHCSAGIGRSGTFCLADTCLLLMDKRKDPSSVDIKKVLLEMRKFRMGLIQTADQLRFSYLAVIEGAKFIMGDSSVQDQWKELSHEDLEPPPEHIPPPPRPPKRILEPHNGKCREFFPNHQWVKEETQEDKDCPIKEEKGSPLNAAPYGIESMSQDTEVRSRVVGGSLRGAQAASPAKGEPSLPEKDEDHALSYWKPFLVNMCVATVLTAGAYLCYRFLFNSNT
The experiment in a line: (§1) Inhibition of human PTP1B (1 to 400 residues) using pNPP as substrate preincubated for 10 mins followed by substrate addition and measured after 20 mins.

Experiment [2] deals with T2, Tyrosine-protein phosphatase non-receptor type 1 (Homo sapiens) (UniProt P18031).
T2 sequence (whole entry): T1 sequence (P18031 whole entry)
The description is as §1.

Experiment [3] deals with Staphylococcus epidermidis. Kind of experiment: Antibacterial activity against Staphylococcus epidermidis 42R assessed as reduction in bacterial growth incubated for 16 hrs by broth microdilution method. It counts as functional.
The subject of a further experiment is Staphylococcus aureus. Kind of experiment: Antibacterial activity against Staphylococcus aureus assessed as reduction in bacterial growth incubated for 16 hrs by broth microdilution method. It counts as functional.
A further experiment concerns Acinetobacter baumannii. Kind of experiment: Antibacterial activity against pandrug-resistant Acinetobacter baumannii A564 assessed as bacterial growth inhibition at 50 ug/ml incubated for 16 hrs by broth microdilution method relative to control. It is filed as functional. The note with it: read-out: GI.

Converted amounts (≈) assume the structure as drawn.

For the molecule `CC[C@H](C)C[C@H](C)[C@@H](O)[C@@H](C)/C=C(\C)[C@@H](O)[C@@H](C)/C=C(\C)[C@@H](O)[C@@H](C)/C=C(\C)C=O`, the IC50 in experiment [1] came out at 27 µM. Further, the inhibition result in experiment [2] was “Dose-Dependent Effect”.

On to `CCCCCCCC(=O)c1c(O)cc(O)cc1CC(=O)OCC` [CYTOSPORONE B], for which the values for the MIC (in experiment [3]; in the experiment with Staphylococcus aureus) were 21 µg/mL (≈ 65.1 µM) and 18 µg/mL (≈ 55.8 µM), respectively. The inhibition of growth at 50 µg/mL with Acinetobacter baumannii worked out at 51%.

The record behind these values is ChEMBL document CHEMBL5370651, “Integrating Taxonomic and Chemical Diversity of Mangrove-Associated Ascomycetes to Discover or Repurpose Bioactive Natural Products” (J Nat Prod, 2023).
